According to ChEMBL document CHEMBL1152560, “Substituted 2-arylbenzothiazoles as kinase inhibitors: hit-to-lead optimization” (Bioorg Med Chem, 2009):

Assays:
[1] = target: Death-associated protein kinase 3 (Homo sapiens) (UniProt O43293); assay: Residual activity of DAPK3 at 10 uM by microplate scintillation counting
[2] = target: T1, Serine/threonine-protein kinase Sgk3 (Homo sapiens) (UniProt Q96BR1); assay: Residual activity of SGK3 at 0.1 uM by microplate scintillation counting
T1 sequence (whole entry): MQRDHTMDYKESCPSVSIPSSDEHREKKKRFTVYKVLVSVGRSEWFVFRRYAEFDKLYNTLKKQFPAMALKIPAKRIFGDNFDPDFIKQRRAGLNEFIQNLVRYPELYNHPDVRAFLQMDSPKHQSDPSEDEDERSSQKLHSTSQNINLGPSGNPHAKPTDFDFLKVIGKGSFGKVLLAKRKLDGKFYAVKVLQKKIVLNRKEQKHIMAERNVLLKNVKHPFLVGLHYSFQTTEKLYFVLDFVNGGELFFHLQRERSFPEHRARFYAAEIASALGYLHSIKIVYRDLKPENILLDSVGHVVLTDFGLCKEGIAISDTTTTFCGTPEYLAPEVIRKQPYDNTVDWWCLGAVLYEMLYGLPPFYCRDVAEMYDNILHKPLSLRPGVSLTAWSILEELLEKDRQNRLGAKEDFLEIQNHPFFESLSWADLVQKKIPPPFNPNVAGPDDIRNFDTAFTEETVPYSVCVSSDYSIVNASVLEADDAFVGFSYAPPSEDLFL

[3] = target: RAC-beta serine/threonine-protein kinase (Homo sapiens) (UniProt P31751); assay: Residual activity of AKT2 at 0.1 uM by microplate scintillation counting
[4] = target: Cyclin-dependent kinase 4/cyclin D1 (Homo sapiens) (UniProt P11802+P24385); assay: Residual activity of CDK4/Cyclin D1 at 0.1 uM by microplate scintillation counting; assay type: protein-complex assay
[5] = target: Serine/threonine-protein kinase N1 (Homo sapiens) (UniProt Q16512); assay: Residual activity of PRK1 at 0.1 uM by microplate scintillation counting
[6] = target: Casein kinase I isoform epsilon (Homo sapiens) (UniProt P49674); assay: Residual activity of CK1epsilon at 10 uM by microplate scintillation counting
[7] = target: Serine/threonine-protein kinase PLK2 (Homo sapiens) (UniProt Q9NYY3); assay: Residual activity of SNK at 0.1 uM by microplate scintillation counting
[8] = target: Serine/threonine-protein kinase N1 (Homo sapiens) (UniProt Q16512); assay: Residual activity of PRK1 at 1 uM by microplate scintillation counting
[9] = target: T2, Interleukin-1 receptor-associated kinase 4 (Homo sapiens) (UniProt Q9NWZ3); assay: Residual activity of IRAK4 at 1 uM by microplate scintillation counting
T2 sequence (whole entry): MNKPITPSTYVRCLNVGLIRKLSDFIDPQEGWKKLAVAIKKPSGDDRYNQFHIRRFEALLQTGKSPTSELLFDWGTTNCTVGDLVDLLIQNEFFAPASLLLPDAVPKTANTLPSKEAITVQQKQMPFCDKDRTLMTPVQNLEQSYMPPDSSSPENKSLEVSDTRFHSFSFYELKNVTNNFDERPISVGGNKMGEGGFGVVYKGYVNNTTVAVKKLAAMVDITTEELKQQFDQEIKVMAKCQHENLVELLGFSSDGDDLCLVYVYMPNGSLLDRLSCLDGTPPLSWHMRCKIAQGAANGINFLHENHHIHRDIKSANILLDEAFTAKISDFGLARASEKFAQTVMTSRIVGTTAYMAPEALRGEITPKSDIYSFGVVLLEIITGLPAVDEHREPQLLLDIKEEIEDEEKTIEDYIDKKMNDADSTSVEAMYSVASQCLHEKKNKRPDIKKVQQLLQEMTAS

[10] = system: T3, Receptor-type tyrosine-protein kinase FLT3 (Homo sapiens), P36888 [D835Y]; assay: Residual activity of FLT3 D835Y mutant at 10 uM by microplate scintillation counting
T3 sequence (whole entry): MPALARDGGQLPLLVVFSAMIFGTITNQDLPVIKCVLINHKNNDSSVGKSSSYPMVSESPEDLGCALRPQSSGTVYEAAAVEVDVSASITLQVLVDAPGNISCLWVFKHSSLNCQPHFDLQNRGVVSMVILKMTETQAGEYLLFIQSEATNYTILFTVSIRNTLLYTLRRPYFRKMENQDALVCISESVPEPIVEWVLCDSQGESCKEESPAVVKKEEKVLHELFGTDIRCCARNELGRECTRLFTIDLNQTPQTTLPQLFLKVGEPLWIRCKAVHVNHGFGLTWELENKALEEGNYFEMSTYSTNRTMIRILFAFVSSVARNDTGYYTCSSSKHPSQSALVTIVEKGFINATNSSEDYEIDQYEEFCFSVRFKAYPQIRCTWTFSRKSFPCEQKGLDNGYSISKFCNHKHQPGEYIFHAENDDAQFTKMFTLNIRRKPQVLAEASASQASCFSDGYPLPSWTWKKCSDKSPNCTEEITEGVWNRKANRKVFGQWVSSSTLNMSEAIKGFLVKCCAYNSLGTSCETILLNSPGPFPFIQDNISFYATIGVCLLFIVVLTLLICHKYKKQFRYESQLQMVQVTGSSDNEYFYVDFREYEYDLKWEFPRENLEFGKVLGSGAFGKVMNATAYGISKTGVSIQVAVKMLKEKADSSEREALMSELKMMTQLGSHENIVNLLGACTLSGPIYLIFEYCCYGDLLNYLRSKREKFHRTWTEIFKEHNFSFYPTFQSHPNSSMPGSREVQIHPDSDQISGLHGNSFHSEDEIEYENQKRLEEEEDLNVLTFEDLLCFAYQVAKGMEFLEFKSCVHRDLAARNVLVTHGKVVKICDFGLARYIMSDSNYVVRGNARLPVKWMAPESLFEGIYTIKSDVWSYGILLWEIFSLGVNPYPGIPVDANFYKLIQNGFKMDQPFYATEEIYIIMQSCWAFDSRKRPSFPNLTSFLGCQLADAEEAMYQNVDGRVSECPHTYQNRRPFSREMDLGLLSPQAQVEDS

[11] = target: T4, Serine/threonine-protein kinase 3 (Homo sapiens) (UniProt Q13188); assay: Residual activity of MST2 at 10 uM by microplate scintillation counting
T4 sequence (whole entry): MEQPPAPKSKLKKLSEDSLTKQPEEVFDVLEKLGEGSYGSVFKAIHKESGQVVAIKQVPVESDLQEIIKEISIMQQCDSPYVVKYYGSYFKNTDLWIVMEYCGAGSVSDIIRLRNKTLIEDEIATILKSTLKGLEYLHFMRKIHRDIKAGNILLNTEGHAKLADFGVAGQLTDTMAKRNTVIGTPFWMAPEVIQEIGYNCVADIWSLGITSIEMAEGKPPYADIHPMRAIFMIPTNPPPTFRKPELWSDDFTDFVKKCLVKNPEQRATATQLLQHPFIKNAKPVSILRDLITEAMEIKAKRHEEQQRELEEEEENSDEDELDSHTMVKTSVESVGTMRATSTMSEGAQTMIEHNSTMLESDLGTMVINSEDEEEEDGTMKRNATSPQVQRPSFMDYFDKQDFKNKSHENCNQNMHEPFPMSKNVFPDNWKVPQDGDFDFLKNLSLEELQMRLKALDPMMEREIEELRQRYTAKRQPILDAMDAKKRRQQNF

Sequence of Death-associated protein kinase 3 (Homo sapiens) (O43293 whole entry, looked up): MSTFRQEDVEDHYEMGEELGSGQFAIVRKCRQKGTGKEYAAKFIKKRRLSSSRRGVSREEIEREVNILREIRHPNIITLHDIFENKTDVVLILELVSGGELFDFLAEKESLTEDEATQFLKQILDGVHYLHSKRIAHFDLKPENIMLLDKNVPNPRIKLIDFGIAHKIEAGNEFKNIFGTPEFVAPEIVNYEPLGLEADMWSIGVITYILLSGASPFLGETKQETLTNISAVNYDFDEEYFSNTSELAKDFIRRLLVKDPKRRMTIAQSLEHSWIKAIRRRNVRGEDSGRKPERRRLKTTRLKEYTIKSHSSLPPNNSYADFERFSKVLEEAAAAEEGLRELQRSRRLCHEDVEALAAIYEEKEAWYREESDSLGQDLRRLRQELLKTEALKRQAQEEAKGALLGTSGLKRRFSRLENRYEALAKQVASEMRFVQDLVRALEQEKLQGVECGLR
Sequence of Serine/threonine-protein kinase PLK2 (Homo sapiens) (Q9NYY3 whole entry, looked up): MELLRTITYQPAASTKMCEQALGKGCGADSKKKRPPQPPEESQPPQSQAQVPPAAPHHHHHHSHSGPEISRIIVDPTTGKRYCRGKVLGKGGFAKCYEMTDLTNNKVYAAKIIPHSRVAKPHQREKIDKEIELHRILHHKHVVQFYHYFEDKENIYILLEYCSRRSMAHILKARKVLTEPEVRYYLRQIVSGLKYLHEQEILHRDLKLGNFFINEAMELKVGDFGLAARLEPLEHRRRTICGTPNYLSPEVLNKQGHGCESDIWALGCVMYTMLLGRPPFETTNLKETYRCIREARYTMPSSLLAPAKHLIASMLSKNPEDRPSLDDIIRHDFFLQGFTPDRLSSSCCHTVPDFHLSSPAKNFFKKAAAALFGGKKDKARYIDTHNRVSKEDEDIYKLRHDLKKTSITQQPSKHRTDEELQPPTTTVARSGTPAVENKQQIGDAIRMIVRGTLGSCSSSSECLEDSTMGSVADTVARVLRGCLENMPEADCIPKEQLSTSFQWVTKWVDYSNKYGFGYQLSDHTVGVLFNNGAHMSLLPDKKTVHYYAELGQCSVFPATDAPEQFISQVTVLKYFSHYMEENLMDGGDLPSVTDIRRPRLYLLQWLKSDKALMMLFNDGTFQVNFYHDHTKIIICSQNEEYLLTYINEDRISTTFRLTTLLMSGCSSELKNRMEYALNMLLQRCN
Sequence of RAC-beta serine/threonine-protein kinase (Homo sapiens) (P31751 whole entry): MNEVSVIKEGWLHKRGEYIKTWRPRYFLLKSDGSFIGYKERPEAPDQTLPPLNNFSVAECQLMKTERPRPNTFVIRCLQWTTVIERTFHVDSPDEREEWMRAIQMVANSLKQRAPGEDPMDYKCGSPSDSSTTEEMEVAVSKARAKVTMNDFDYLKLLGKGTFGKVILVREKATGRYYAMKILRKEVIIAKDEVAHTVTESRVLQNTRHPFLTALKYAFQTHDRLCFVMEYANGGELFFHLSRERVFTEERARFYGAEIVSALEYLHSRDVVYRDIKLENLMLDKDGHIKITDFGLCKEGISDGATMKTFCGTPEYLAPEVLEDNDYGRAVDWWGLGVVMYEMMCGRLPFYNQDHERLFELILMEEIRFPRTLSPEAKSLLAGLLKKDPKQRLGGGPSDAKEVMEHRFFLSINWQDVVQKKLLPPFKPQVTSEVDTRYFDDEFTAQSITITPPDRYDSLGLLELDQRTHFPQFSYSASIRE
Sequence of Serine/threonine-protein kinase N1 (Homo sapiens) (Q16512 2-942 limits assumed): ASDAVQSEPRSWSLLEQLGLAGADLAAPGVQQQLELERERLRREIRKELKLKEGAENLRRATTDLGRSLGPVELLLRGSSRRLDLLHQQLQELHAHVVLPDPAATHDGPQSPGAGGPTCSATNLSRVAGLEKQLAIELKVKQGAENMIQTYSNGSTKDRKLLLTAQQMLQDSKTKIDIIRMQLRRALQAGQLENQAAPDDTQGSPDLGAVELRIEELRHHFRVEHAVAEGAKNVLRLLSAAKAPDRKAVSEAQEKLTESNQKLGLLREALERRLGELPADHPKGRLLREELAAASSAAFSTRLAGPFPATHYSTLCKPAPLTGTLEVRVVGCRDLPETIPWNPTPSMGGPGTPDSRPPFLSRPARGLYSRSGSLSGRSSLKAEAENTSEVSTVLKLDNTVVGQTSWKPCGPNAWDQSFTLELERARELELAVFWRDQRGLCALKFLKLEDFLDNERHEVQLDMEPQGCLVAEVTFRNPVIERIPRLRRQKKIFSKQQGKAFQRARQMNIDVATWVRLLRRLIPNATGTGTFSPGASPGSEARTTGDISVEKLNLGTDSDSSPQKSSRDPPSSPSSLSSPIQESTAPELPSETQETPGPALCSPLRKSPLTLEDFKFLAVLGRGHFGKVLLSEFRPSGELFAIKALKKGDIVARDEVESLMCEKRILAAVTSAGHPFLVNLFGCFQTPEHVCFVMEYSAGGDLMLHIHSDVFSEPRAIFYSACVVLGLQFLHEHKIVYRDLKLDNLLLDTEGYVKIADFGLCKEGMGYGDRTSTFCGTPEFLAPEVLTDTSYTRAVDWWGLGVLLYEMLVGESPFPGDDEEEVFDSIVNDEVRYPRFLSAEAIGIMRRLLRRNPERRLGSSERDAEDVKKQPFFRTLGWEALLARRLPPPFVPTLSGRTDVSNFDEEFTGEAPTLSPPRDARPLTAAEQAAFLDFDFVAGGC
Sequence of Casein kinase I isoform epsilon (Homo sapiens) (P49674 whole entry, looked up, canonical isoform): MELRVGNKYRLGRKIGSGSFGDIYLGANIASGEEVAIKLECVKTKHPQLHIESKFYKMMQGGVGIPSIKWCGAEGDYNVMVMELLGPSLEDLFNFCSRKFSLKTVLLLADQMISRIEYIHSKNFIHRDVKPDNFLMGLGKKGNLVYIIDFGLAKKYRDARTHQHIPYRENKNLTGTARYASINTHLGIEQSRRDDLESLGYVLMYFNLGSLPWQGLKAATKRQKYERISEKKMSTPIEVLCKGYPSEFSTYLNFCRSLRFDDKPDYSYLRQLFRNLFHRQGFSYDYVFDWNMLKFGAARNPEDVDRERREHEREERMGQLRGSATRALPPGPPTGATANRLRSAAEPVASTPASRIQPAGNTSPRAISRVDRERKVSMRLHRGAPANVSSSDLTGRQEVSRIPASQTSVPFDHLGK

residual activity [2] [%] | residual activity [3] [%] | residual activity [4] [%] | residual activity [5] [%] | residual activity [6] [%] | residual activity [7] [%] | residual activity [8] [%] | residual activity [9] [%] | residual activity [10] [%] | residual activity [11] [%] | Compound | residual activity [1] [%]
114 | 102 | 98 | 96 | 147 | 108 | 97 | 90 | 48 | 20 | COc1cc2c(Oc3ccc(-c4nc5ccccc5s4)cc3)ncnc2cc1OCCCN1CCCC1 | 90
91 | 97 | 96 | 99 | 156 | 89 | 98 | 91 | 19 | 21 | COc1cc2c(Oc3ccc(-c4nc5ccccc5s4)cc3)ncnc2cc1OCCCN1CCN(C)CC1 | 96
104 | 108 | 98 | 94 | 97 | 89 | 99 | 97 | 18 | 23 | COc1cc2c(Oc3ccc(-c4nc5ccccc5s4)cc3F)ncnc2cc1OCCCN1CCN(C)CC1 | 89
